Measurements as given in patent publication US9399904B2, “Oil recovery system and method” (SHELL OIL COMPANY, priority 2013, dated 2016).

Assay: Dynamic viscosity of crude/dimethyl sulfide blends, closed cup rheometer
Type: physicochemical
Method: The quality of dimethyl sulfide as an oil recovery agent based on the crude oil viscosity lowering properties of dimethyl sulfide was evaluated. Three crude oils having widely disparate viscosity characteristics—an African Waxy crude, a Middle Eastern asphaltic crude, and a Canadian asphaltic crude—were blended with dimethyl sulfide.
A control sample of each crude was prepared containing no dimethyl sulfide, and samples of each crude were prepared and blended with dimethyl sulfide to prepare crude samples containing increasing concentrations of dimethyl sulfide. The samples were heated to 60° C. to dissolve any waxes therein and to permit weighing of a homogeneous liquid. The samples were weighed, allowed to cool overnight, then blended with a selected quantity of dimethyl sulfide. The samples of the crude/dimethyl sulfide blend were then heated to 60° C. and mixed to ensure homogeneous blending of the dimethyl sulfide in the samples. Absolute (dynamic) viscosity measurements of each of the samples were taken using a closed cup rheometer using a PZ39 rotor sensor assembly in the rheometer. Viscosity measurements of each of the samples of the West African waxy crude and the Middle Eastern asphaltic crude were taken at 20° C., 40° C., 60° C., 80° C., and then again at 20° C. after cooling from 80° C., where the second measurement at 20° C. is taken to measure the viscosity without the presence of waxes since wax formation occurs slowly enough to permit viscosity measurement at 20° C. without the presence of wax. Viscosity measurements of each of the samples of the Canadian asphaltic crude were taken at 5° C., 10° C., 20° C., 40° C., 60° C., 80° C., The measured viscosities for each of the crudes are shown in Tables 4, 5, and 6 below.

## CSC [Dimethyl Sulfide, dimethyl sulfide]
1.21 wt. % DMS, 20° C.
  Viscosity of West African Waxy Crude: 125.8 mPa s
1.21 wt. % DMS, 20° C. after cooling from 80° C.
  Viscosity of West African Waxy Crude: 100.1 mPa s
1.21 wt. % DMS, 40° C.
  Viscosity of West African Waxy Crude: 30.94 mPa s
1.21 wt. % DMS, 60° C.
  Viscosity of West African Waxy Crude: 14.66 mPa s
1.21 wt. % DMS, 80° C.
  Viscosity of West African Waxy Crude: 8.92 mPa s
1.3 wt. % DMS, 20° C.
  Viscosity of Middle Eastern Asphaltic Crude: 1733.8 mPa s
1.3 wt. % DMS, 20° C. after cooling from 80° C.
  Viscosity of Middle Eastern Asphaltic Crude: 1624.8 mPa s
1.3 wt. % DMS, 40° C.
  Viscosity of Middle Eastern Asphaltic Crude: 334.5 mPa s
1.3 wt. % DMS, 60° C.
  Viscosity of Middle Eastern Asphaltic Crude: 106.7 mPa s
1.3 wt. % DMS, 80° C.
  Viscosity of Middle Eastern Asphaltic Crude: 44.6 mPa s
1.43 wt. % DMS, 20° C.
  Viscosity of Topped Canadian Asphaltic Crude: 212525 mPa s
1.43 wt. % DMS, 40° C.
  Viscosity of Topped Canadian Asphaltic Crude: 14721 mPa s
1.43 wt. % DMS, 60° C.
  Viscosity of Topped Canadian Asphaltic Crude: 2209 mPa s
1.43 wt. % DMS, 80° C.
  Viscosity of Topped Canadian Asphaltic Crude: 538 mPa s
2.07 wt. % DMS, 20° C.
  Viscosity of Topped Canadian Asphaltic Crude: 134880 mPa s
2.07 wt. % DMS, 40° C.
  Viscosity of Topped Canadian Asphaltic Crude: 10523 mPa s
2.07 wt. % DMS, 60° C.
  Viscosity of Topped Canadian Asphaltic Crude: 1747 mPa s
2.07 wt. % DMS, 80° C.
  Viscosity of Topped Canadian Asphaltic Crude: 427 mPa s
2.48 wt. % DMS, 20° C.
  Viscosity of West African Waxy Crude: 122.3 mPa s
2.48 wt. % DMS, 20° C. after cooling from 80° C.
  Viscosity of West African Waxy Crude: 89.23 mPa s
2.48 wt. % DMS, 40° C.
  Viscosity of West African Waxy Crude: 30.53 mPa s
2.48 wt. % DMS, 60° C.
  Viscosity of West African Waxy Crude: 13.66 mPa s
2.48 wt. % DMS, 80° C.
  Viscosity of West African Waxy Crude: 8.44 mPa s
2.6 wt. % DMS, 20° C.
  Viscosity of Middle Eastern Asphaltic Crude: 1026.6 mPa s
2.6 wt. % DMS, 20° C. after cooling from 80° C.
  Viscosity of Middle Eastern Asphaltic Crude: 881.1 mPa s
2.6 wt. % DMS, 40° C.
  Viscosity of Middle Eastern Asphaltic Crude: 219.9 mPa s
2.6 wt. % DMS, 60° C.
  Viscosity of Middle Eastern Asphaltic Crude: 76.5 mPa s
2.6 wt. % DMS, 80° C.
  Viscosity of Middle Eastern Asphaltic Crude: 34.3 mPa s
4.87 wt. % DMS, 20° C.
  Viscosity of Topped Canadian Asphaltic Crude: 28720 mPa s
4.87 wt. % DMS, 40° C.
  Viscosity of Topped Canadian Asphaltic Crude: 3235 mPa s
4.87 wt. % DMS, 60° C.
  Viscosity of Topped Canadian Asphaltic Crude: 985 mPa s
4.87 wt. % DMS, 80° C.
  Viscosity of Topped Canadian Asphaltic Crude: 328 mPa s
5.03 wt. % DMS, 20° C.
  Viscosity of West African Waxy Crude: 78.37 mPa s
5.03 wt. % DMS, 20° C. after cooling from 80° C.
  Viscosity of West African Waxy Crude: 55.21 mPa s
5.03 wt. % DMS, 40° C.
  Viscosity of West African Waxy Crude: 20.24 mPa s
5.03 wt. % DMS, 60° C.
  Viscosity of West African Waxy Crude: 10.45 mPa s
5.03 wt. % DMS, 80° C.
  Viscosity of West African Waxy Crude: 6.55 mPa s
5.3 wt. % DMS, 20° C.
  Viscosity of Middle Eastern Asphaltic Crude: 496.5 mPa s
5.3 wt. % DMS, 20° C. after cooling from 80° C.
  Viscosity of Middle Eastern Asphaltic Crude: 503.5 mPa s
5.3 wt. % DMS, 40° C.
  Viscosity of Middle Eastern Asphaltic Crude: 134.2 mPa s
5.3 wt. % DMS, 60° C.
  Viscosity of Middle Eastern Asphaltic Crude: 52.2 mPa s
5.3 wt. % DMS, 80° C.
  Viscosity of Middle Eastern Asphaltic Crude: 25.5 mPa s
7.6 wt. % DMS, 20° C.
  Viscosity of Middle Eastern Asphaltic Crude: 288.0 mPa s
7.60 wt. % DMS, 20° C.
  Viscosity of West African Waxy Crude: 60.92 mPa s
7.6 wt. % DMS, 20° C. after cooling from 80° C.
  Viscosity of Middle Eastern Asphaltic Crude: 290.0 mPa s
7.60 wt. % DMS, 20° C. after cooling from 80° C.
  Viscosity of West African Waxy Crude: 40.89 mPa s
7.6 wt. % DMS, 40° C.
  Viscosity of Middle Eastern Asphaltic Crude: 89.4 mPa s
7.60 wt. % DMS, 40° C.
  Viscosity of West African Waxy Crude: 17.08 mPa s
7.6 wt. % DMS, 60° C.
  Viscosity of Middle Eastern Asphaltic Crude: 37.4 mPa s
7.60 wt. % DMS, 60° C.
  Viscosity of West African Waxy Crude: 9.29 mPa s
7.6 wt. % DMS, 80° C.
  Viscosity of Middle Eastern Asphaltic Crude: 19.3 mPa s
7.60 wt. % DMS, 80° C.
  Viscosity of West African Waxy Crude: 6.09 mPa s
8.01 wt. % DMS, 20° C.
  Viscosity of Topped Canadian Asphaltic Crude: 5799 mPa s
8.01 wt. % DMS, 40° C.
  Viscosity of Topped Canadian Asphaltic Crude: 982 mPa s
8.01 wt. % DMS, 60° C.
  Viscosity of Topped Canadian Asphaltic Crude: 275 mPa s
8.01 wt. % DMS, 80° C.
  Viscosity of Topped Canadian Asphaltic Crude: 106 mPa s
9.80 wt. % DMS, 20° C.
  Viscosity of Topped Canadian Asphaltic Crude: 2760 mPa s
9.80 wt. % DMS, 40° C.
  Viscosity of Topped Canadian Asphaltic Crude: 571 mPa s
9.80 wt. % DMS, 60° C.
  Viscosity of Topped Canadian Asphaltic Crude: 173 mPa s
9.80 wt. % DMS, 80° C.
  Viscosity of Topped Canadian Asphaltic Crude: 73 mPa s
9.95 wt. % DMS, 20° C.
  Viscosity of West African Waxy Crude: 44.70 mPa s
9.95 wt. % DMS, 20° C. after cooling from 80° C.
  Viscosity of West African Waxy Crude: 30.61 mPa s
9.95 wt. % DMS, 40° C.
  Viscosity of West African Waxy Crude: 13.03 mPa s
9.95 wt. % DMS, 60° C.
  Viscosity of West African Waxy Crude: 7.58 mPa s
9.95 wt. % DMS, 80° C.
  Viscosity of West African Waxy Crude: 5.04 mPa s
10.1 wt. % DMS, 20° C.
  Viscosity of Middle Eastern Asphaltic Crude: 150.0 mPa s
10.1 wt. % DMS, 20° C. after cooling from 80° C.
  Viscosity of Middle Eastern Asphaltic Crude: 150.5 mPa s
10.1 wt. % DMS, 40° C.
  Viscosity of Middle Eastern Asphaltic Crude: 52.4 mPa s
10.1 wt. % DMS, 60° C.
  Viscosity of Middle Eastern Asphaltic Crude: 24.5 mPa s
10.1 wt. % DMS, 80° C.
  Viscosity of Middle Eastern Asphaltic Crude: 13.5 mPa s
14.81 wt. % DMS, 5° C.
  Viscosity of Topped Canadian Asphaltic Crude: 1794 mPa s
14.81 wt. % DMS, 10° C.
  Viscosity of Topped Canadian Asphaltic Crude: 1155 mPa s
14.81 wt. % DMS, 20° C.
  Viscosity of Topped Canadian Asphaltic Crude: 548 mPa s
14.81 wt. % DMS, 40° C.
  Viscosity of Topped Canadian Asphaltic Crude: 159 mPa s
14.81 wt. % DMS, 60° C.
  Viscosity of Topped Canadian Asphaltic Crude: 64 mPa s
14.81 wt. % DMS, 80° C.
  Viscosity of Topped Canadian Asphaltic Crude: 32 mPa s
15.13 wt. % DMS, 20° C.
  Viscosity of West African Waxy Crude: 23.96 mPa s
15.13 wt. % DMS, 20° C. after cooling from 80° C.
  Viscosity of West African Waxy Crude: 17.64 mPa s
15.13 wt. % DMS, 40° C.
  Viscosity of West African Waxy Crude: 8.32 mPa s
15.13 wt. % DMS, 60° C.
  Viscosity of West African Waxy Crude: 4.97 mPa s
15.13 wt. % DMS, 80° C.
  Viscosity of West African Waxy Crude: 3.38 mPa s
15.2 wt. % DMS, 20° C.
  Viscosity of Middle Eastern Asphaltic Crude: 59.4 mPa s
15.2 wt. % DMS, 20° C. after cooling from 80° C.
  Viscosity of Middle Eastern Asphaltic Crude: 60.7 mPa s
15.2 wt. % DMS, 40° C.
  Viscosity of Middle Eastern Asphaltic Crude: 25.2 mPa s
15.2 wt. % DMS, 60° C.
  Viscosity of Middle Eastern Asphaltic Crude: 13.6 mPa s
15.2 wt. % DMS, 80° C.
  Viscosity of Middle Eastern Asphaltic Crude: 8.2 mPa s
19.30 wt. % DMS, 20° C.
  Viscosity of West African Waxy Crude: 15.26 mPa s
19.30 wt. % DMS, 20° C. after cooling from 80° C.
  Viscosity of West African Waxy Crude: 12.06 mPa s
19.30 wt. % DMS, 40° C.
  Viscosity of West African Waxy Crude: 6.25 mPa s
19.30 wt. % DMS, 60° C.
  Viscosity of West African Waxy Crude: 4.05 mPa s
19.30 wt. % DMS, 80° C.
  Viscosity of West African Waxy Crude: 2.92 mPa s
19.78 wt. % DMS, 20° C.
  Viscosity of Topped Canadian Asphaltic Crude: 188 mPa s
19.78 wt. % DMS, 40° C.
  Viscosity of Topped Canadian Asphaltic Crude: 69 mPa s
19.78 wt. % DMS, 60° C.
  Viscosity of Topped Canadian Asphaltic Crude: 33 mPa s
19.78 wt. % DMS, 80° C.
  Viscosity of Topped Canadian Asphaltic Crude: 19 mPa s
20.1 wt. % DMS, 20° C.
  Viscosity of Middle Eastern Asphaltic Crude: 29.9 mPa s
20.1 wt. % DMS, 20° C. after cooling from 80° C.
  Viscosity of Middle Eastern Asphaltic Crude: 31.0 mPa s
20.1 wt. % DMS, 40° C.
  Viscosity of Middle Eastern Asphaltic Crude: 14.8 mPa s
20.1 wt. % DMS, 60° C.
  Viscosity of Middle Eastern Asphaltic Crude: 8.7 mPa s
20.1 wt. % DMS, 80° C.
  Viscosity of Middle Eastern Asphaltic Crude: 5.7 mPa s
29.88 wt. % DMS, 5° C.
  Viscosity of Topped Canadian Asphaltic Crude: 113 mPa s
29.88 wt. % DMS, 10° C.
  Viscosity of Topped Canadian Asphaltic Crude: 81 mPa s
29.88 wt. % DMS, 20° C.
  Viscosity of Topped Canadian Asphaltic Crude: 51 mPa s
29.88 wt. % DMS, 40° C.
  Viscosity of Topped Canadian Asphaltic Crude: 22 mPa s
29.88 wt. % DMS, 60° C.
  Viscosity of Topped Canadian Asphaltic Crude: 13 mPa s
29.88 wt. % DMS, 80° C.
  Viscosity of Topped Canadian Asphaltic Crude: 8 mPa s
39.61 wt. % DMS, 5° C.
  Viscosity of Topped Canadian Asphaltic Crude: 23 mPa s
39.61 wt. % DMS, 10° C.
  Viscosity of Topped Canadian Asphaltic Crude: 20 mPa s
39.61 wt. % DMS, 20° C.
  Viscosity of Topped Canadian Asphaltic Crude: 14 mPa s
39.61 wt. % DMS, 40° C.
  Viscosity of Topped Canadian Asphaltic Crude: 8 mPa s
39.61 wt. % DMS, 60° C.
  Viscosity of Topped Canadian Asphaltic Crude: 6 mPa s
39.61 wt. % DMS, 80° C.
  Viscosity of Topped Canadian Asphaltic Crude: 4 mPa s
All three crudes, particularly Canadian asphaltenic crude oil
  lowering the viscosity of a crude oil, in words: effective for significantly lowering the viscosity of a crude oil
